Data on 1 compound can be found in patent US10059699B2, “Tetrahydroquinoline derivatives as bromodomain inhibitors” (GlaxoSmithKline Intellectual Property (No.2) Limited, priority 2014, dated 2018).

Marks after values point to notes of the source that are not given here.

The subject of this test is Immunoglobulin-1 (IgG1). In words: TNP-KLH induced IgG1 production mouse assay. The test is classed as in vivo, mice. The note with it: 30 mg/kg oral; for Day 14 IgG1: 14 day dosing, male CD1 mice; for % reduction in IgG1 from vehicle: day 14. On the procedure:
The compound was assayed for its ability to inhibit trinitrophenol-keyhole limpet hemocyanin (TNP-KLH) induced Immunoglobulin-1 (IgG1) production in mice. Male CD1 mice (Charles River Laboratories, 8 per group) received a single oral administration of compound (in 1% (w/v) methylcellulose, aq 400) either once every day (QD), once every other day (QOD) or once every 72 hours (QOED) over a 14 day dosing period. On day 1 of the study, each mouse received a single bolus intraperitoneal (ip) administration of TNP-KLH (100 μg/kg, T-5060-25, Lot #021562-06) 1 hour after oral administration of compound. Serial blood samples were collected at 1 hour post oral compound administration via tail veil on days 1, 4, 7, 9 and 11 or via cardiac puncture (terminal sample) on day 14 and the serum harvested from the blood samples was frozen at −80° C. On the day of analysis, the serum was thawed to room temperature and levels of IgG1 were measured using a TNP ELISA (developed in-house) and read on a SpectraMax 190 spectrophotometer (Molecular Devices, CA). The mean IgG1 values were generated and the mean percent IgG1 reduction on day 14 following treatment with compound was calculated compared to the corresponding vehicle treated group. Levels of significance were calculated by analysis of variance (ANOVA) followed by Dunnett's multiple comparison t-test using Graphpad Prism version 5.04 (Graphpad Software, San Diego, Calif.). Statistical differences were determined as […].

As for `CC(=O)N1c2ccc(C(N)=O)cc2[C@H](Nc2ncc(Cl)cn2)C[C@@H]1C` [Example 14, (2S,4R)-1-acetyl-4-((5-chloropyrimidin-2-yl)amino)-2-methyl-1,2,3,4-tetrahydroquinoline-6-carboxamide], the “% reduction in IgG1 from vehicle” value was 41%. Also, where the note is “QD”, the “Day 14 IgG1” value was 127 ng/mL and the “% reduction in IgG1 from vehicle” value is 98*** %. For the setting “QOD”, the “Day 14 IgG1” value came to 373 ng/mL and the “% reduction in IgG1 from vehicle” value was 93*** %. Moreover, the “Day 14 IgG1” value (QOED (every 72 hours)) came to 3162 ng/mL.
